How the values were obtained:
[1] = biological target: T1, Poly [ADP-ribose] polymerase tankyrase-1 (Homo sapiens, UniProt O95271); assay: Inhibition of N-terminal His-tagged human ARTD5 (1030 to 1317 residues) expressed in Escherichia coli Rosetta2 (DE3) using TCEP as substrate after 18 hrs in presence of NAD+
T1 sequence (O95271 whole entry): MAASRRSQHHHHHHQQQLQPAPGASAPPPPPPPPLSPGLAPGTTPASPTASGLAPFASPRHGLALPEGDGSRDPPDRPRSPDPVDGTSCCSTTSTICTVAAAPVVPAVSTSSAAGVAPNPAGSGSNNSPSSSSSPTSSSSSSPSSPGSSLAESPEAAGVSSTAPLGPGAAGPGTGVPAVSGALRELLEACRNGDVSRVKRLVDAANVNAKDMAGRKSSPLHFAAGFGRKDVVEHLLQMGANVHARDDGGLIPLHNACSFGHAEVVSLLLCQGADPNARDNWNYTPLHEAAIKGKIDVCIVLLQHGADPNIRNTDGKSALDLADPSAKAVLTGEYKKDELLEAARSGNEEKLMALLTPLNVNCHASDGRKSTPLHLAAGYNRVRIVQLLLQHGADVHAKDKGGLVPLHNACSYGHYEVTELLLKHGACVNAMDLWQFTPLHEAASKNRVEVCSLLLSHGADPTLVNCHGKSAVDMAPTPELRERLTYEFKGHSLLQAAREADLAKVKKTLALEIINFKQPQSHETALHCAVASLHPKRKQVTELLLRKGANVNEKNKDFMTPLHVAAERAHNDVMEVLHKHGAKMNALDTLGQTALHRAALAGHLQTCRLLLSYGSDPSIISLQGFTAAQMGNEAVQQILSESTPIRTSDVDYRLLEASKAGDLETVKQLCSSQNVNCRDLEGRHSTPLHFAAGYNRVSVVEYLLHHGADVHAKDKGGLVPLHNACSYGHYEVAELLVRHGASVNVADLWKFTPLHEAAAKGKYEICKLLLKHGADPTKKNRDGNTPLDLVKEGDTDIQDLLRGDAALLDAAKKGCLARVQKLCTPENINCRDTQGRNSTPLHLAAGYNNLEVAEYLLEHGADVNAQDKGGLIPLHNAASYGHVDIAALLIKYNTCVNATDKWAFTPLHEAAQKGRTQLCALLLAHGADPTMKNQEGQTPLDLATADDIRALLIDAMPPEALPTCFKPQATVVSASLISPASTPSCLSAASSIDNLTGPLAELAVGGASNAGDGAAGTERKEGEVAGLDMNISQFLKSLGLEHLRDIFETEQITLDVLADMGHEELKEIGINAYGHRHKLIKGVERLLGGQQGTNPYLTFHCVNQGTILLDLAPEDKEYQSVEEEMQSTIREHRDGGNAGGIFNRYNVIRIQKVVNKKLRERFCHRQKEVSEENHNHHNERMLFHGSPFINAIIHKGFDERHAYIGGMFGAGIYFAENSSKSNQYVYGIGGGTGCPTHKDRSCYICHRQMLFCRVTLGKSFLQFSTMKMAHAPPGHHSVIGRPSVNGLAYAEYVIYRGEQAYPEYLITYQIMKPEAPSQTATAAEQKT

[2] = biological target: T2, Poly [ADP-ribose] polymerase tankyrase-2 (Homo sapiens, UniProt Q9H2K2); assay: Inhibition of N-terminal His-tagged Z-basic-fused human ARTD6 (873 to 1161 residues) expressed in Escherichia coli Rosetta2 (DE3) using TCEP as substrate after 18 hrs in presence of NAD+
T2 sequence (Q9H2K2 whole entry): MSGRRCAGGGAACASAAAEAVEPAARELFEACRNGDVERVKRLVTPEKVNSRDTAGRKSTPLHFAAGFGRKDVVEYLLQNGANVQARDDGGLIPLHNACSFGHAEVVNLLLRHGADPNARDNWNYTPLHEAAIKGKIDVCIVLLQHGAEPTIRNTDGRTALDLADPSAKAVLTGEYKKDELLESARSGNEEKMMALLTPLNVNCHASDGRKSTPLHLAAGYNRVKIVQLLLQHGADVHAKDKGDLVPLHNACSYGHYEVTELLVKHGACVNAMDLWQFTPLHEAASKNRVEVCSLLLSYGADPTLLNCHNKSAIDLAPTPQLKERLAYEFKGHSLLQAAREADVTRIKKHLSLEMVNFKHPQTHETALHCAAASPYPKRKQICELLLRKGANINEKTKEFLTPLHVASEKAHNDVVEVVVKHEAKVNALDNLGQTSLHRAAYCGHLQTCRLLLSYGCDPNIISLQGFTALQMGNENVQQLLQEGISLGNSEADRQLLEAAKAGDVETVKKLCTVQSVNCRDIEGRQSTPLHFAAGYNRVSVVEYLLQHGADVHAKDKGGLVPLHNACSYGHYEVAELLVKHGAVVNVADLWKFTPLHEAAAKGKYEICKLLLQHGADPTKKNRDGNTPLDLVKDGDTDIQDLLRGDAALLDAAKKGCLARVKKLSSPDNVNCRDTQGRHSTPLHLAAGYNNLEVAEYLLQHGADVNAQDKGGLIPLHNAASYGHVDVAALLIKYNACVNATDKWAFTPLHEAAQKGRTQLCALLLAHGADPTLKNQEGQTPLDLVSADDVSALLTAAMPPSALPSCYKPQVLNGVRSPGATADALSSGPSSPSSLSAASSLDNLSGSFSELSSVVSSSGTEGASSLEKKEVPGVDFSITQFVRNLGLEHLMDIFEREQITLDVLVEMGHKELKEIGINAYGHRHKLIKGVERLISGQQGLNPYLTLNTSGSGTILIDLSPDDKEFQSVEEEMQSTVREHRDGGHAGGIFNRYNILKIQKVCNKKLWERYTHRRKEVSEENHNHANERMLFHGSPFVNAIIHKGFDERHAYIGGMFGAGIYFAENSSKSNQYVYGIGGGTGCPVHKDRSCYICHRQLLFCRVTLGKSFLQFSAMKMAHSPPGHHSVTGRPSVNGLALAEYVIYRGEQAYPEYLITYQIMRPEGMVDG

Structure (SMILES)	IC50 [1] [µM]	IC50 [2] [µM]
COc1ccc(C(N)=O)cc1	> 100	> 100
NC(=O)c1ccc(Oc2ccc(C(=O)O)cc2)cc1	> 100	> 100
NC(=O)c1ccc(OCc2ccccc2F)cc1	> 100	> 100
NC(=O)c1ccc(Oc2ccc(C=O)cc2)cc1	> 100	> 100

Source: ChEMBL document CHEMBL4270552, “4-(Phenoxy) and 4-(benzyloxy)benzamides as potent and selective inhibitors of mono-ADP-ribosyltransferase PARP10/ARTD10” (Eur J Med Chem, 2018)
